Measurements from paper PMC10022191, “Safety, tolerability, pharmacokinetics, and antiviral activity of the novel core protein allosteric modulator ZM-H1505R (Canocapavir) in chronic hepatitis B patients: a randomized multiple-dose escalation trial” (BMC Medicine, 2023).
“Also recorded” adds a separate entry of the source.

Assay: phase 1b trial: adverse reactions and tolerability in CHB patients
Type: in vivo, human
Experimental: This was a randomized, open-label, placebo-controlled, phase 1b study (Clinical Trial Registration Number: NCT05470829; Chinese Clinical Trial Registration Number: CTR20210686), which was conducted at the Phase I Clinical Research Center, The First Hospital of Jilin University (Jilin, China), during the period from May to November of 2021. In order to minimize the safety risk of Canocapavir, an adaptive ascending dosing strategy was adopted for Canocapavir treatment in this study. The second and third assigned doses were initiated only after the safety data from the previous dose was reviewed and determined to be safe by the Principal Investigator and the Sponsor on day 8 postdosing (post drug administration days). Canocapavir was administered at the Clinical Research Center on days 1–8 and day 28 and at home on days 9–27 under the same conditions (fixed administration time and fasting condition). Patients were required to visit the facility for follow-up on days 15, 22, 27, 43 ± 1, and 57 ± 2 postdosing. The study protocol and informed consent forms were prepared according to the principles of the Declaration of Helsinki. The study protocol was approved by the Institutional Review Board of the First Hospital of Jilin University (approval number: 20Y201-006). All recruited patients provided written informed consent before participating in any study-related procedures.
A total of 30 CHB patients were recruited in this study and were randomly assigned into three cohorts (N = 10, each). In these three cohorts, the patients (in a ratio of 4:1) received 50, 100, or 200 mg of Canocapavir or placebo once a day for 28 consecutive days under fasting conditions, followed by a 28-day follow-up (Fig. 1). The patients, care providers, and those assessing outcomes were blinded during the study. This random process was completed in an electronic data capture system, and the details are shown in Additional file 1.
To examine possible adverse events (AEs) and adverse reactions (an adverse event is definitely, probably, or possibly related to the drug) in this study, the recruited patients underwent regular clinical laboratory testing, 12-lead electrocardiograms, examination of vital signs, abdominal ultrasound, and regular physical examinations, using the baseline data as a control. The severity of AEs and laboratory abnormalities were graded according to the Common Terminology Criteria for Adverse Events (CTCAE), version 5.0, which defines toxicity criteria. The AEs were coded using the Medical Dictionary for Regulatory Activities, version 24.1 (McLean, VA, USA).

With `O=C1CO[C@H](c2cn(-c3ccc(Br)cc3)nc2-c2ccc(F)cc2)N1CCc1ccc2[nH]c(=O)[nH]c2c1` [Canocapavir] the “Increased aspartate aminotransferase, cases” value (100 mg q.d., 28 days) was 2 case, the “Increased aspartate aminotransferase, grade I, number of subjects” value (100 mg q.d., 28 days) was 2 n and the “Increased aspartate aminotransferase, grade I, percent of subjects” value (100 mg q.d., 28 days) was 25.00%. For the same molecule, the “Increased aspartate aminotransferase, grade II, number of subjects” value (100 mg q.d., 28 days) was 0 n, the “Increased aspartate aminotransferase, grade II, percent of subjects” value (100 mg q.d., 28 days) was 0% and the “Increased aspartate aminotransferase, number of subjects (%)” value (100 mg q.d., 28 days) was 2 (25) n (%). For the same molecule, the “Increased bilirubin, cases” value (100 mg q.d., 28 days) was 0 case, the “Increased bilirubin, grade I, number of subjects” value (100 mg q.d., 28 days) was 0 n and the “Increased bilirubin, grade I, percent of subjects” value (100 mg q.d., 28 days) was 0%. For the same molecule, the “Increased bilirubin, number of subjects (%)” value (100 mg q.d., 28 days) was 0 (0) n (%), the “Increased creatinine, cases” value (100 mg q.d., 28 days) was 0 case and the “Increased creatinine, grade I, number of subjects” value (100 mg q.d., 28 days) was 0 n. For the same molecule, the “Increased creatinine, grade I, percent of subjects” value (100 mg q.d., 28 days) was 0%, the “Increased creatinine, number of subjects (%)” value (100 mg q.d., 28 days) was 0 (0) n (%) and the “Increased γ-glutamyltransferase, cases” value (100 mg q.d., 28 days) was 1 case. The “Increased γ-glutamyltransferase, grade I, number of subjects” value (100 mg q.d., 28 days) was 1 n, the “Increased γ-glutamyltransferase, grade I, percent of subjects” value (100 mg q.d., 28 days) was 12.50% and the “Increased γ-glutamyltransferase, number of subjects (%)” value (100 mg q.d., 28 days) was 1 (12.5) n (%). The “Rash, cases” value (100 mg q.d., 28 days) was 1 case, the “Rash, grade I, number of subjects” value (100 mg q.d., 28 days) was 1 n and the “Rash, grade I, percent of subjects” value (100 mg q.d., 28 days) was 12.50%. The “Rash, number of subjects (%)” value (100 mg q.d., 28 days) was 1 (12.5) n (%), the “Total adverse reactions, cases” value (100 mg q.d., 28 days) was 10 case and the “Total adverse reactions, number of subjects (%)” value (100 mg q.d., 28 days) was 5 (62.5) n (%). The “maximum ALT level, patient E3010” value (100 mg q.d., day 15, baseline 144.9 U/L) was 385.4 U/L, the “Adverse reactions, grade I, number of subjects” value (200 mg q.d., 28 days) was 3 n and the “Adverse reactions, grade I, percent of subjects” value (200 mg q.d., 28 days) was 37.50%. The “Adverse reactions, grade II, number of subjects” value (200 mg q.d., 28 days) was 0 n, the “Adverse reactions, grade II, percent of subjects” value (200 mg q.d., 28 days) was 0% and the “Adverse reactions, grade III, number of subjects” value (200 mg q.d., 28 days) was 1 n. The “Adverse reactions, grade III, percent of subjects” value (200 mg q.d., 28 days) was 12.50%, the “Adverse reactions, total (all grades), number of subjects” value (200 mg q.d., 28 days) was 4 n and the “Adverse reactions, total (all grades), percent of subjects” value (200 mg q.d., 28 days) was 50.0%. The “Decreased neutrophil count, cases” value (200 mg q.d., 28 days) was 0 case, the “Decreased neutrophil count, grade II, number of subjects” value (200 mg q.d., 28 days) was 0 n and the “Decreased neutrophil count, grade II, percent of subjects” value (200 mg q.d., 28 days) was 0%. The “Decreased neutrophil count, grade III, number of subjects” value (200 mg q.d., 28 days) was 0 n, the “Decreased neutrophil count, grade III, percent of subjects” value (200 mg q.d., 28 days) was 0% and the “Decreased neutrophil count, number of subjects (%)” value (200 mg q.d., 28 days) was 0 (0) n (%). For the same molecule, the “Decreased platelet count, cases” value (200 mg q.d., 28 days) was 0 case, the “Decreased platelet count, grade I, number of subjects” value (200 mg q.d., 28 days) was 0 n and the “Decreased platelet count, grade I, percent of subjects” value (200 mg q.d., 28 days) was 0%. The “Decreased platelet count, number of subjects (%)” value (200 mg q.d., 28 days) was 0 (0) n (%), the “Decreased serum phosphorus, cases” value (200 mg q.d., 28 days) was 1 case and the “Decreased serum phosphorus, grade I, number of subjects” value (200 mg q.d., 28 days) was 1 n. For the same molecule, the “Decreased serum phosphorus, grade I, percent of subjects” value (200 mg q.d., 28 days) was 12.50%, the “Decreased serum phosphorus, number of subjects (%)” value (200 mg q.d., 28 days) was 1 (12.5) n (%) and the “Decreased white blood cell count, cases” value (200 mg q.d., 28 days) was 0 case. The “Decreased white blood cell count, grade II, number of subjects” value (200 mg q.d., 28 days) was 0 n, the “Decreased white blood cell count, grade II, percent of subjects” value (200 mg q.d., 28 days) was 0% and the “Decreased white blood cell count, number of subjects (%)” value (200 mg q.d., 28 days) was 0 (0) n (%). For the same molecule, the “Hypertriglyceridemia, cases” value (200 mg q.d., 28 days) was 2 case, the “Hypertriglyceridemia, grade III, percent of subjects” value (200 mg q.d., 28 days) was 12.50% and the “Hypertriglyceridemia, number of subjects (%)” value (200 mg q.d., 28 days) was 1 (12.5) n (%). For the same molecule, the “Increased alanine aminotransferase, cases” value (200 mg q.d., 28 days) was 3 case, the “Increased alanine aminotransferase, grade I, number of subjects” value (200 mg q.d., 28 days) was 3 n and the “Increased alanine aminotransferase, grade I, percent of subjects” value (200 mg q.d., 28 days) was 37.50%. The “Increased alanine aminotransferase, grade II, number of subjects” value (200 mg q.d., 28 days) was 0 n, the “Increased alanine aminotransferase, grade II, percent of subjects” value (200 mg q.d., 28 days) was 0% and the “Increased alanine aminotransferase, number of subjects (%)” value (200 mg q.d., 28 days) was 3 (37.5) n (%). For the same molecule, the “Increased aspartate aminotransferase, cases” value (200 mg q.d., 28 days) was 1 case, the “Increased aspartate aminotransferase, grade I, number of subjects” value (200 mg q.d., 28 days) was 1 n and the “Increased aspartate aminotransferase, grade I, percent of subjects” value (200 mg q.d., 28 days) was 12.50%. The “Increased aspartate aminotransferase, grade II, number of subjects” value (200 mg q.d., 28 days) was 0 n, the “Increased aspartate aminotransferase, grade II, percent of subjects” value (200 mg q.d., 28 days) was 0% and the “Increased aspartate aminotransferase, number of subjects (%)” value (200 mg q.d., 28 days) was 1 (12.5) n (%). For the same molecule, the “Increased bilirubin, cases” value (200 mg q.d., 28 days) was 1 case, the “Increased bilirubin, grade I, number of subjects” value (200 mg q.d., 28 days) was 1 n and the “Increased bilirubin, grade I, percent of subjects” value (200 mg q.d., 28 days) was 12.50%. For the same molecule, the “Increased bilirubin, number of subjects (%)” value (200 mg q.d., 28 days) was 1 (12.5) n (%), the “Increased creatinine, cases” value (200 mg q.d., 28 days) was 0 case and the “Increased creatinine, grade I, number of subjects” value (200 mg q.d., 28 days) was 0 n. For the same molecule, the “Increased creatinine, grade I, percent of subjects” value (200 mg q.d., 28 days) was 0%, the “Increased creatinine, number of subjects (%)” value (200 mg q.d., 28 days) was 0 (0) n (%) and the “Increased γ-glutamyltransferase, cases” value (200 mg q.d., 28 days) was 0 case. For the same molecule, the “Increased γ-glutamyltransferase, grade I, number of subjects” value (200 mg q.d., 28 days) was 0 n, the “Increased γ-glutamyltransferase, grade I, percent of subjects” value (200 mg q.d., 28 days) was 0% and the “Increased γ-glutamyltransferase, number of subjects (%)” value (200 mg q.d., 28 days) was 0 (0) n (%). For the same molecule, the “Rash, cases” value (200 mg q.d., 28 days) was 0 case, the “Rash, grade I, number of subjects” value (200 mg q.d., 28 days) was 0 n and the “Rash, grade I, percent of subjects” value (200 mg q.d., 28 days) was 0%. For the same molecule, the “Rash, number of subjects (%)” value (200 mg q.d., 28 days) was 0 (0) n (%), the “Total adverse reactions, cases” value (200 mg q.d., 28 days) was 8 case and the “Total adverse reactions, number of subjects (%)” value (200 mg q.d., 28 days) was 4 (50) n (%). For the same molecule, the “relation of incidence of adverse reactions to dose” value (50–200 mg q.d.) was “not significantly correlated to its increased dose”, the safety and tolerability (50–200 mg q.d., 28 days) was “well tolerated; also recorded: safe and tolerated” and the serious adverse events (50–200 mg q.d., 28 days) was “no serious adverse events; also recorded: No serious AE”. For the same molecule, the “withdrawal from the study” value (50–200 mg q.d., 28 days) was “no patients withdrew”, the “patients with a grade I adverse reaction (elevation of ALT or AST)” value (across dose cohorts) was 12.5–37.5% and the “cases of AEs in the Canocapavir cohort” value (all doses, 24 patients) was 38 cases. The “cases of adverse reactions in the Canocapavir cohort” value (all doses, 24 patients) was 24 cases, the “patients with AEs in the Canocapavir cohort” value (all doses, 24 patients) was 75% and the “patients with adverse reactions in the Canocapavir cohort” value (all doses, 24 patients) was 50%.
